One block for each molecule: values may come before it. Activity calls are given as the source filed them. No cut-off for these calls is given here.
Legend:
[1] = Stability of the compound in DMEM medium with 10% fetal bovine serum assessed as parent compound remaining at 200 uM incubated upto 24 hrs by HLPC analysis; assay type: ADME, cell-free; conditions: cattle, read-out: Stability
[2] = system: A-375; assay: Antiproliferative activity against human A-375 cells assessed as reduction in cell viability at 1.5625 to 50 uM after 24 hrs by MTT assay; assay type: functional, cell-based; conditions: dose 1.5625-50 µM
[3] = Drug degradation in DMEM medium with 10% fetal bovine serum assessed as compound hydrolysis at 200 uM incubated upto 24 hrs by HLPC analysis; assay type: ADME, cell-free; conditions: cattle, read-out: Drug degradation
[4] = system: A-375; assay: Binding affinity to RACK1 in human A-375 cells at 10 uM preincubated for 4 hrs in the presence of harringtonolide followed by irradiation with UV for 30 mins measured by Western blotting based pull-down assay; assay type: cell-based; conditions: time 4.5 hrs
[5] = system: A-375; assay: Inhibition of cell migration in human A-375 cells at measured after 24 hrs by phase contrast microscopy based wound healing assay; assay type: functional; conditions: dose 0.5-2 µM
[6] = system: A-375; assay: Binding affinity to RACK1 in human A-375 cells at 10 uM preincubated for 4 hrs followed by irradiation with UV for 30 mins measured by Western blotting based pull-down assay; assay type: cell-based; conditions: time 4.5 hrs
[7] = system: A-375; assay: Inhibition of cell invasion in human A-375 cells at measured after 24 hrs by crystal violet staining based imaging analysis; assay type: functional; conditions: dose 0.5-2 µM
[8] = system: A-375; assay: Antiproliferative activity against human A-375 cells assessed as reduction in cell viability upto 50 uM after 24 hrs by MTT assay; assay type: functional, cell-based; conditions: dose microM <=50, time 24.0 hrs
[9] = biological target: Focal adhesion kinase 1 (Homo sapiens) (UniProt Q05397); assay: Inhibition of FAK phosphorylation in human A-375 cells measured after 24 hrs by Western blotting analysis; assay type: cell-based; conditions: dose 0.5-4 µM
[10] = system: A-375; assay: Inhibition of epithelial-mesenchymal transition in human A-375 cells assessed as upregulation of E-cadherin expression at 0.5 to 4 uM measured after 24 hrs by Western blotting analysis; assay type: functional, cell-based; conditions: dose 0.5-4 µM
[11] = biological target: Focal adhesion kinase 1 (Homo sapiens) (UniProt Q05397); assay: Inhibition of FAK in human A-375 cells assessed as reduction in Src activation at 0.5 to 4 uM measured after 24 hrs by Western blotting analysis; assay type: cell-based; conditions: dose 0.5-4 µM
[12] = system: A-375; assay: Binding affinity to RACK1 in human A-375 cells assessed as prevention of temperature dependent protein degradation at 10 uM preincubated for 60 mins at room temperature followed by heat treatment at 45 to 63 degree C for 5 mins measured by immunoblotting based cellular thermal shift assay; assay type: cell-based
[13] = biological target: Signal transducer and activator of transcription 3 (Homo sapiens) (UniProt P40763); assay: Inhibition of STAT3 in human A-375 cells assessed as decrease in Bcl2 protein level at 0.5 to 4 uM measured after 24 hrs by western blot analysis; assay type: cell-based; conditions: dose 0.5-4 µM
[14] = biological target: Signal transducer and activator of transcription 3 (Homo sapiens) (UniProt P40763); assay: Inhibition of STAT3 in human A-375 cells assessed as decrease in c-Myc protein level at 0.5 to 4 uM measured after 24 hrs by western blot analysis; assay type: cell-based; conditions: dose 0.5-4 µM
[15] = system: A-375; assay: Inhibition of RACK1-FAK protein-protein interaction in human A-375 cells measured after 24 hrs by co-immunoprecipitation assay; assay type: cell-based; conditions: dose 2-4 µM
[16] = system: A-375; assay: Binding affinity to RACK1 in human A-375 cells assessed as prevention of pronase-mediated protein degradation at 5 to 20 uM preincubated for 60 mins followed by enzyme addition and measured after 25 mins by immunoblotting based DARTS assay; assay type: cell-based; conditions: dose 5-20 µM, time 85.0 min
[17] = system: A-375; assay: Antiproliferative activity against human A-375 cells assessed as reduction in cell viability after 24 hrs by MTT assay; assay type: functional, cell-based; conditions: A-375, 24 h
[18] = system: A-375; assay: Inhibition of epithelial-mesenchymal transition in human A-375 cells assessed as downregulation of Snail expression at 0.5 to 4 uM measured after 24 hrs by Western blotting analysis; assay type: functional, cell-based; conditions: dose 0.5-4 µM
[19] = system: A-375; assay: Inhibition of epithelial-mesenchymal transition in human A-375 cells assessed as downregulation of N-cadherin expression at 0.5 to 4 uM measured after 24 hrs by Western blotting analysis; assay type: functional, cell-based; conditions: dose 0.5-4 µM
[20] = biological target: Focal adhesion kinase 1 (Homo sapiens) (UniProt Q05397); assay: Inhibition of FAK in human A-375 cells assessed as reduction in STAT3 activation at 0.5 to 4 uM measured after 24 hrs by Western blotting analysis; assay type: cell-based; conditions: dose 0.5-4 µM

Chain of Focal adhesion kinase 1 (Homo sapiens) (Q05397 2-1052 limits assumed): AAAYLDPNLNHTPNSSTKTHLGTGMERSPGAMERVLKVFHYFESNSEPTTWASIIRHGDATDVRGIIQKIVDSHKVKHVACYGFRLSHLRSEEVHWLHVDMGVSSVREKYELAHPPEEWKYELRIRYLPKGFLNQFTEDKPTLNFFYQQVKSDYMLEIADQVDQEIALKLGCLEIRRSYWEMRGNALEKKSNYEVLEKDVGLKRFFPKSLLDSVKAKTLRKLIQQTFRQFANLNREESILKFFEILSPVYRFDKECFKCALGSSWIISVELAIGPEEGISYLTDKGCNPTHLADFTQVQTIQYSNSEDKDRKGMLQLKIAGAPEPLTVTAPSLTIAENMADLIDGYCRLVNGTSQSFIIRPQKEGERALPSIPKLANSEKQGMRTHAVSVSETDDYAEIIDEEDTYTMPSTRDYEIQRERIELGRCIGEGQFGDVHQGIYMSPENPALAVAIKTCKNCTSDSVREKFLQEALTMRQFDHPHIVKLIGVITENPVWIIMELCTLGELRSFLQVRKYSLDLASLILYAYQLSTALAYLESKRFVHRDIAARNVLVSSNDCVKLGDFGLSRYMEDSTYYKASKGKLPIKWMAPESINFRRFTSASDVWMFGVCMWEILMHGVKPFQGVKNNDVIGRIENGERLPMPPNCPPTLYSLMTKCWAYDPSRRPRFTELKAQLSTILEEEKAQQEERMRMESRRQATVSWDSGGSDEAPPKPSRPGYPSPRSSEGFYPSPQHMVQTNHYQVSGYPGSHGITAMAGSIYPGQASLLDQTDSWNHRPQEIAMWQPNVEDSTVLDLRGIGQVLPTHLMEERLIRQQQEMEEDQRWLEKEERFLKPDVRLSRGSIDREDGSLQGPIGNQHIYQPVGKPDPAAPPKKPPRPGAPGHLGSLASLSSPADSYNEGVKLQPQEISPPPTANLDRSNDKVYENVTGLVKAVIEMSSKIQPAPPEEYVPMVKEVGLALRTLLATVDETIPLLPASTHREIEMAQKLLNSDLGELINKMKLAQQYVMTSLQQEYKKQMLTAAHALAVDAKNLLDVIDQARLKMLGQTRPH
Chain of Signal transducer and activator of transcription 3 (Homo sapiens) (P40763 whole entry): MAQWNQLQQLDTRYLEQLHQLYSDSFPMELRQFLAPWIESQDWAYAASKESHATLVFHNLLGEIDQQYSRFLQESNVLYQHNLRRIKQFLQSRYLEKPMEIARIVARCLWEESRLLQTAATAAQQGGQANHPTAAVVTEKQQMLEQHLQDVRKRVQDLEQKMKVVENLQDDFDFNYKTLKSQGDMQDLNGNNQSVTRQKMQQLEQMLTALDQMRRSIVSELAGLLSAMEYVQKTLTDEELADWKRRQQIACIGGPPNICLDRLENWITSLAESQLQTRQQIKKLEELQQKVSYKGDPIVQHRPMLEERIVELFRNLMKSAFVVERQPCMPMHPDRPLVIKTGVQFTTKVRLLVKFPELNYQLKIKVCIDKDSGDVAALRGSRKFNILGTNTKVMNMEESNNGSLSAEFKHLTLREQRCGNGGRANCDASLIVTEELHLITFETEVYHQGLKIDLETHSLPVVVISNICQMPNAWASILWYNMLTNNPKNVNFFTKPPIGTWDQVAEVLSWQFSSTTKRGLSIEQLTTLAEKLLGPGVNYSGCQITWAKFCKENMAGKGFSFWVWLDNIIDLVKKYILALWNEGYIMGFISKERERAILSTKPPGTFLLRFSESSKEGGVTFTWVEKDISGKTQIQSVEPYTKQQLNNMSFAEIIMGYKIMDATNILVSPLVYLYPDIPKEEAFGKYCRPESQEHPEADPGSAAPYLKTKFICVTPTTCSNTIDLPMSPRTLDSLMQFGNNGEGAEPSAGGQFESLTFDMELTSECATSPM

remaining at 24 h, 200 µM [1]: 59.2%
Compound: Cc1cc(=O)cc2c3c1[C@@H]1O[C@H]4[C@@H]5OC(=O)[C@](C[C@@H]2OC(=O)COCCOCCNC(=O)CCCC[C@@H]2SC[C@@H]6NC(=O)N[C@@H]62)([C@@H]4C)[C@H]3[C@@H]51
Activity [2]: Active

degraded at 24 h, 200 µM [3]: 13.6%
Compound: C#CCCC1(CCC(=O)O[C@H]2C[C@]34C(=O)O[C@H]5[C@H](O[C@H]6c7c(C)cc(=O)cc2c7[C@@H]3[C@@H]56)[C@H]4C)N=N1
Activity [4]: inactive | inhibition [5]: Dose-Dependent Effect | Activity [6]: Active | Activity [2]: Active | inhibition [7]: Dose-Dependent Effect

Compound: Cc1cc(=O)cc2c3c1[C@@H]1O[C@H]4[C@@H]5OC(=O)[C@](C[C@@H]2OC(=O)COCCOCCOCCOCCNC(=O)CCCC[C@@H]2SC[C@@H]6NC(=O)N[C@@H]62)([C@@H]4C)[C@H]3[C@@H]51
Activity [8]: inactive

Compound: Cc1cc(=O)cc2c3c1[C@@H]1O[C@H]4[C@@H]5OC(=O)[C@](CC2)([C@@H]4C)[C@H]3[C@@H]51 [HAINANOLIDE]
inhibition [9]: Dose-Dependent Effect | inhibition [10]: Active | inhibition [11]: Active | Activity [12]: Active | inhibition [13]: Active | inhibition [14]: Active | inhibition [15]: Dose-Dependent Effect | Activity [16]: Active | inhibition [5]: Dose-Dependent Effect | IC50 [17]: 39.7 µM | inhibition [18]: Active | inhibition [19]: Active | inhibition [20]: Active | inhibition [7]: Dose-Dependent Effect

Source: ChEMBL document CHEMBL5046311, “Photoaffinity Probe Reveals the Potential Target of Harringtonolide for Cancer Cell Migration Inhibition” (ACS Med Chem Lett, 2022)
